From BigSolDB 2.1

CC(C)OC(=O)[C@H](C)N[P@](=O)(OC[C@H]1O[C@@H](n2ccc(=O)[nH]c2=O)[C@](C)(F)[C@@H]1O)Oc1ccccc1
solubility (mole fraction)
Details | 278.15 K | 283.15 K | 288.15 K | 293.15 K | 298.15 K | 303.15 K | 308.15 K | 313.15 K | 318.15 K
in acetone | 0.0275 | 0.0343 | 0.0435 | 0.0538 | 0.066 | 0.0796 | 0.0951 | 0.113 | 0.134
in acetonitrile | 0.00484 | 0.00629 | 0.00812 | 0.0101 | 0.0127 | 0.0156 | 0.019 | 0.0234 | 0.0286
in cyclohexane | – | 6.09e-07 | 9.4e-07 | 1.44e-06 | 2.09e-06 | 3.05e-06 | 4.33e-06 | 6.11e-06 | 8.66e-06
in ethanol | 0.022 | 0.0274 | 0.0342 | 0.0416 | 0.0505 | 0.0599 | 0.0712 | 0.0842 | 0.0997
in ethyl acetate | 0.00263 | 0.00362 | 0.00486 | 0.00641 | 0.0084 | 0.0108 | 0.0139 | 0.0178 | 0.0228
in n-butanol | 0.00935 | 0.0116 | 0.0144 | 0.0182 | 0.0225 | 0.0278 | 0.034 | 0.0413 | 0.0501
in toluene | 4.46e-06 | 7.43e-06 | 1.1e-05 | 1.75e-05 | 2.67e-05 | 4.02e-05 | 6.15e-05 | 9.44e-05 | 0.000144
in water | 1.18e-05 | 1.85e-05 | 2.59e-05 | 3.65e-05 | 5.05e-05 | 7.02e-05 | 9.6e-05 | 0.000131 | 0.00017
